Reference: US11141403B2, “Benzimidazoles and indoles as taro inhibitors” (MERCK SHARP & DOHME CORP., priority 2015, dated 2021)

Test system: MRSA COL (MB5393)
Test: TarO Inhibitor/β-Lactam Synergy Assay
Assay type: cell-based, Staphylococcus aureus
Conditions: 20 hours; for IC95: Staphylococcus aureus, TarO inhibitor alone, OD600, 95% growth inhibition, read-out: MITC95 TarO inhibitor alone, Bacteria: SA_MB5393; for MITC95 TarO inhibitor + 4 μg/mL IPM; Bacteria: SA_MB5393: in combination with 4 μg/mL imipenem; for MITC95 TarO inhibitor + 4 μg/mL IPM; Bacteria: SA_MB5393 / MITC95 TarO inhibitor + 8 μg/mL DCX; Bacteria: SA_MB5393: OD600; for MITC95 TarO inhibitor + 8 μg/mL DCX; Bacteria: SA_MB5393: in combination with 8 μg/mL dicloxacillin
Procedure: The TarO inhibitor/β-lactam synergy assay was performed to measure the re-sensitization of methicillin-resistant Staphylococci bacteria (MB5393: MRSA COL) to β-lactam antibiotics by TarO inhibitors. MRSA COL is a hospital-acquired penicillinase-negative clinically isolated strain commonly used in Staphylococcus aureus studies and is fully resistant to the antimicrobial bioactivity of β-lactam antibiotics, including but not limited to imipenem and dicloxacillin. […] MRSA COL is fully refractory to β-lactam antibiotic effect at the current clinical breakpoint concentrations and as such MRSA COL is fully viable at these concentrations.
The β-lactam antibiotic concentration was fixed at the clinical breakpoint (imipenem 4 μg/ml or dicloxacillin 8 μg/ml) and the TarO inhibitors were titrated by 2 fold starting from the highest concentration of 200 μM with final DMSO concentration of 2% in the assay. 5×10^5 colony forming unit of MRSA COL in cation-adjusted Mueller Hinton broth (CAMHB) was then mixed and the assay plate was incubated for 20 hours at 37° C. without shaking. After 20 hours, the optical density at 600 nm (OD600) was read for all wells to determine relative growth of MRSA COL.

CCc1nsc(N2CCCC(c3nc4ccccc4n3CCC(=O)N(CC)C3CCCCC3)C2)n1 (centres unmarked) [Example 46, N-cyclohexyl-N-ethyl-3-{2-[1-(3-ethyl-1,2,4-thiadiazol-5-yl)piperidin-3-yl]-1H-benzimidazol-1-yl}propanamide]
IC95: 100 µM
MITC95 TarO inhibitor + 4 μg/mL IPM; Bacteria: SA_MB5393: 1.56 µM
MITC95 TarO inhibitor + 8 μg/mL DCX; Bacteria: SA_MB5393: 6.25 µM

CCN(C(=O)CCn1c2c(F)cccc2nc1[C@H]1CC[C@H](CC)CC1)C1CCCCC1 [Example 11, N-cyclohexyl-N-ethyl-3-[2-(trans-4-ethylcyclohexyl)-7-fluoro-1H-benzimidazol-1-yl]propanamide]
IC95: > 200 µM
MITC95 TarO inhibitor + 4 μg/mL IPM; Bacteria: SA_MB5393: 0.40 µM
MITC95 TarO inhibitor + 8 μg/mL DCX; Bacteria: SA_MB5393: 1.04 µM

CCN(C(=O)CCn1c(C2CCC(C)N(c3cccc(OC)n3)C2)nc2ccccc21)C1CCCCC1 (centres unmarked) [Example 44, N-cyclohexyl-N-ethyl-3-{2-[1-(6-methoxypyridin-2-yl)-6-methylpiperidin-3-yl]-1H-benzimidazol-1-yl}propanamide]
IC95: 100 µM
MITC95 TarO inhibitor + 4 μg/mL IPM; Bacteria: SA_MB5393: 0.10 µM
MITC95 TarO inhibitor + 8 μg/mL DCX; Bacteria: SA_MB5393: 0.20 µM

CCN(C(=O)CCn1c2cccc(F)c2nc1[C@H]1CC[C@H](CC)CC1)C1CCCCC1 [Example 9, N-cyclohexyl-N-ethyl-3-[2-(trans-4-ethylcyclohexyl)-4-fluoro-1H-benzimidazol-1-yl]propanamide]
IC95: > 200 µM
MITC95 TarO inhibitor + 4 μg/mL IPM; Bacteria: SA_MB5393: 0.13 µM
MITC95 TarO inhibitor + 8 μg/mL DCX; Bacteria: SA_MB5393: 0.79 µM

CCN(C(=O)CCn1c2cc(F)ccc2nc1[C@H]1CC[C@H](CC)CC1)C1CCCCC1 [Example 6, N-cyclohexyl-N-ethyl-3-(2-(trans-4-ethvlcyclohexyl)-6-fluoro-1H-benzo[d]imidazol-1-yl)propanamide]
IC95: > 200 µM
MITC95 TarO inhibitor + 4 μg/mL IPM; Bacteria: SA_MB5393: 0.13 µM
MITC95 TarO inhibitor + 8 μg/mL DCX; Bacteria: SA_MB5393: 0.59 µM

CCN(C(=O)CCn1c(C2CCCCC2)cc2ccccc21)C1CCCCC1 [Example 64, N-cyclohexyl-3-(2-cyclohexyl-1H-indol-1-yl)-N-ethylpropanamide]
IC95: > 200 µM
MITC95 TarO inhibitor + 4 μg/mL IPM; Bacteria: SA_MB5393: 6.20 µM

CCN(C(=O)CCn1c(N2CCC(F)(F)CC2)nc2ccccc21)C1CCCCC1 [Example 55, N-cyclohexyl-3-(2-(4,4-difluoropiperidin-1-yl)-1H-benzo[d]imidazol-1-yl)-N-ethylpropanamide]
IC95: > 200 µM
MITC95 TarO inhibitor + 4 μg/mL IPM; Bacteria: SA_MB5393: 1.37 µM
MITC95 TarO inhibitor + 8 μg/mL DCX; Bacteria: SA_MB5393: 7.81 µM

CCOC(=O)N1CCCC(c2nc3cc(F)ccc3n2CCC(=O)N(CC)C2CCCCC2)C1 (centres unmarked) [Example 13, Ethyl 3-(1-{3-[cyclohexyl(ethyl)amino]-3-oxopropyl}-5-fluoro-1H-benzimidazol-2-yl)piperidine-1-carboxylate]
IC95: > 200 µM
MITC95 TarO inhibitor + 4 μg/mL IPM; Bacteria: SA_MB5393: 0.35 µM
MITC95 TarO inhibitor + 8 μg/mL DCX; Bacteria: SA_MB5393: 2.19 µM

CCN(C(=O)CCn1c2cccc(C(F)F)c2nc1[C@H]1CC[C@H](C)CC1)C1CCCCC1 [Example 20, N-cyclohexyl-3-[4-(difluoromethyl)-2-(trans-4-methylcyclohexyl)-1H-benzimidazol-1-yl]-N-ethylpropanamide]
IC95: 100 µM
MITC95 TarO inhibitor + 4 μg/mL IPM; Bacteria: SA_MB5393: 1.56 µM
MITC95 TarO inhibitor + 8 μg/mL DCX; Bacteria: SA_MB5393: 12.50 µM

CCCCOC(=O)N1CCCC(c2nc3ccccc3n2CCC(=O)N(CC)C2CCCCC2)C1 (centres unmarked) [Example 45, butyl 3-(1-{3-[cyclohexyl(ethyl)amino]-3-oxopropyl}-1H-benzimidazol-2-yl)piperidine-1-carboxylate]
IC95: 100 µM
MITC95 TarO inhibitor + 4 μg/mL IPM; Bacteria: SA_MB5393: 0.20 µM
MITC95 TarO inhibitor + 8 μg/mL DCX; Bacteria: SA_MB5393: 0.78 µM

CCCOC(=O)N1CCCC(c2nc3ccccc3n2CCC(=O)N(CC)C2CCCCC2)C1 (centres unmarked) [Example 51, Propyl 3-(1-{3-[cyclohexyl(ethyl)amino]-3-oxopropyl}-1H-benzimidazol-2-yl)piperidine-1-carboxylate]
IC95: 100 µM
MITC95 TarO inhibitor + 4 μg/mL IPM; Bacteria: SA_MB5393: 0.39 µM
MITC95 TarO inhibitor + 8 μg/mL DCX; Bacteria: SA_MB5393: 3.13 µM

CCN(C(=O)CCn1c2ccc(OC)cc2nc1[C@H]1CC[C@H](CC)CC1)C1CCCCC1 [Example 16, N-cyclohexyl-N-ethyl-3-[2-(trans-4-ethylcyclohexyl)-5-methoxy-1H-benzimidazol-1-yl]propanamide]
IC95: > 200 µM
MITC95 TarO inhibitor + 4 μg/mL IPM; Bacteria: SA_MB5393: 1.04 µM
MITC95 TarO inhibitor + 8 μg/mL DCX; Bacteria: SA_MB5393: 14.58 µM

CCOC(=O)N1CCCC(c2nc3ccc(F)cc3n2CCC(=O)N(CC)C2CCCCC2)C1 (centres unmarked) [Example 23, Ethyl 3-(1-{3-[cyclohexyl(ethyl)amino]-3-oxopropyl}-6-fluoro-1H-benzimidazol-2-yl)piperidine-1-carboxylate]
IC95: > 200 µM
MITC95 TarO inhibitor + 4 μg/mL IPM; Bacteria: SA_MB5393: 9.38 µM
MITC95 TarO inhibitor + 8 μg/mL DCX; Bacteria: SA_MB5393: 37.50 µM

CCN(C(=O)CCn1c(C2CCN(C(=O)OC(C)(C)C)C2)nc2cc(F)ccc21)C1CCCCC1 (centres unmarked) [Example 21, tert-butyl 3-(1-{3-[cyclohexyl(ethyl)amino]-3-oxopropyl}-5-fluoro-1H-benzimidazol-2-yl)pyrrolidine-1-carboxylate]
IC95: > 200 µM
MITC95 TarO inhibitor + 4 μg/mL IPM; Bacteria: SA_MB5393: 0.78 µM
MITC95 TarO inhibitor + 8 μg/mL DCX; Bacteria: SA_MB5393: 13.54 µM

CCN(C(=O)CCn1c(CN2CCC(C(C)(C)C)CC2)nc2ccccc21)C1CCCCC1 [Example 60, 3-{2-[(4-tert-butylpiperidin-1-yl)methyl]-1H-benzimidazol-1-yl}-N-cyclohexyl-N-ethylpropanamide]
IC95: > 200 µM
MITC95 TarO inhibitor + 4 μg/mL IPM; Bacteria: SA_MB5393: 0.78 µM
MITC95 TarO inhibitor + 8 μg/mL DCX; Bacteria: SA_MB5393: 6.25 µM

CCN(C(=O)CCn1c(C2CCCN(c3cccc(OC)n3)C2)nc2ccccc21)C1CCCCC1 (centres unmarked) [Example 47, N-cyclohexyl-N-ethyl-3-{2-[1-(6-methoxypyridin-2-yl)piperidin-3-yl]-1H-benzimidazol-1-yl}propanamide]
IC95: 100 µM
MITC95 TarO inhibitor + 4 μg/mL IPM; Bacteria: SA_MB5393: 0.10 µM
MITC95 TarO inhibitor + 8 μg/mL DCX; Bacteria: SA_MB5393: 0.20 µM

CCN(C(=O)CCn1c2cc(-c3cnn(C)c3)ccc2nc1[C@H]1CC[C@H](CC)CC1)C1CCCCC1 [Example 25, N-cyclohexyl-N-ethyl-3-[2-(trans-4-ethylcyclohexyl)-6-(1-methyl-1H-pyrazol-4-yl)-1H-benzimidazol-1-yl]propanamide]
IC95: > 200 µM
MITC95 TarO inhibitor + 4 μg/mL IPM; Bacteria: SA_MB5393: 0.38 µM
MITC95 TarO inhibitor + 8 μg/mL DCX; Bacteria: SA_MB5393: 1.30 µM

CCCOC(=O)N1CC(c2nc3ccccc3n2CCC(=O)N(CC)C2CCCCC2)CCC1C (centres unmarked) [Example 49, propyl 5-(1-{3-[cyclohexyl(ethyl)amino]-3-oxopropyl}-1H-benzimidazol-2-yl)-2-methylpiperidine-1-carboxylate]
IC95: 100 µM
MITC95 TarO inhibitor + 4 μg/mL IPM; Bacteria: SA_MB5393: 0.78 µM
MITC95 TarO inhibitor + 8 μg/mL DCX; Bacteria: SA_MB5393: 6.25 µM

CCN(C(=O)CCn1c(-c2ccc(C(=O)OC)cc2)nc2ccccc21)C1CCCCC1 [Example 36, methyl 4-(1-{3-[cyclohexyl(ethyl)amino]-3-oxopropyl}-1H-benzimidazol-2-yl)benzoate]
IC95: > 200 µM
MITC95 TarO inhibitor + 4 μg/mL IPM; Bacteria: SA_MB5393: 0.68 µM
MITC95 TarO inhibitor + 8 μg/mL DCX; Bacteria: SA_MB5393: 3.91 µM

CCN(C(=O)CCn1c2cccc(C[C@H]3CCOC3)c2nc1[C@H]1CC[C@H](CC)CC1)C1CCCCC1 [Example 29, N-cyclohexyl-N-ethyl-3-{2-(trans-4-ethylcyclohexyl)-4-[(3S)-tetrahydrofuran-3-ylmethyl]-1H-benzimidazol-1-yl}propanamide]
IC95: > 200 µM
MITC95 TarO inhibitor + 4 μg/mL IPM; Bacteria: SA_MB5393: 1.56 µM
MITC95 TarO inhibitor + 8 μg/mL DCX; Bacteria: SA_MB5393: 6.25 µM

CCN(C(=O)CCn1c2cc(CN3CCN(CC(F)(F)F)CC3)ccc2nc1[C@H]1CC[C@H](CC)CC1)C1CCCCC1 [Example 30, N-cyclohexyl-N-ethyl-3-[2-(trans-4-ethylcyclohexyl)-6-{[4-(2,2,2-trifluoroethyl)piperazin-1-yl]methyl}-1H-benzimidazol-1-yl]propanamide]
IC95: > 200 µM
MITC95 TarO inhibitor + 4 μg/mL IPM; Bacteria: SA_MB5393: 18.75 µM
MITC95 TarO inhibitor + 8 μg/mL DCX; Bacteria: SA_MB5393: 25 µM

CCN(C(=O)CCn1c(C2CCC(C)N(c3nccc(OC)n3)C2)nc2ccccc21)C1CCCCC1 (centres unmarked) [Example 50, N-cyclohexyl-N-ethyl-3-{2-[1-(4-methoxypyrimidin-2-yl)-6-methylpiperidin-3-yl]-1H-benzimidazol-1-yl}propanamide]
IC95: 100 µM
MITC95 TarO inhibitor + 4 μg/mL IPM; Bacteria: SA_MB5393: 0.20 µM
MITC95 TarO inhibitor + 8 μg/mL DCX; Bacteria: SA_MB5393: 1.56 µM

CCN(C(=O)CCn1c2ccc(Br)cc2nc1[C@H]1CC[C@H](CC)CC1)C1CCCCC1 [Example 5, 3-[5-bromo-2-(trans-4-ethylcyclohexyl)-1H-benzimidazol-1-yl]-N-cvclohexyl-N-ethylpropanamide]
IC95: > 200 µM
MITC95 TarO inhibitor + 4 μg/mL IPM; Bacteria: SA_MB5393: 0.01 µM
MITC95 TarO inhibitor + 8 μg/mL DCX; Bacteria: SA_MB5393: 0.02 µM

CCN(C(=O)CCn1c2ccc(CO)cc2nc1[C@H]1CC[C@H](CC)CC1)C1CCCCC1 [Example 1, N-cyclohexyl-N-ethyl-3-(2-(trans-4-ethylcyclohexyl)-5-(hydroxymethyl)-1H-benzo[d]imidazol-1-yl)propanamide]
IC95: > 200 µM
MITC95 TarO inhibitor + 4 μg/mL IPM; Bacteria: SA_MB5393: 1.82 µM
MITC95 TarO inhibitor + 8 μg/mL DCX; Bacteria: SA_MB5393: 6.25 µM
